The source of these data is ChEMBL document CHEMBL4303087, “Broad anti-coronaviral activity of FDA approved drugs against SARS-CoV-2 in vitro and SARS-CoV in vivo” (2020).

Molecules are shown by their SMILES. Where “and” joins values, the source holds several entries; their conditions need not be identical. Identical values can stand only once. Counter-ions that a name gives are not always drawn. Calls of active or inactive are those of the source. The rule behind the calls is not given here. Some results are limits rather than exact numbers.

Data set [1] deals with SARS-CoV-2. The experiment in a line: microbe, parasite or virus in culture. It is filed as functional, organism-based, Chlorocebus sabaeus, Vero C1008.
In another data set the test system is Vero C1008. Conditions: chlorocebus sabaeus, vero c1008, 72 h.
Data set [2] in a line: in vitro. Conditions: monkey, Vero E6 cells, Selectivity index.
The subject of data set [3] is SARS-CoV-2. The experiment in a line: microbe, parasite or virus in culture. The class given is functional, organism-based, Chlorocebus sabaeus, Vero C1008. This is another data set of the same source.
Data set [4] in a line: in vitro. The conditions noted are these: monkey, Vero E6 cells, Selectivity index. The source holds these as a separate data set.
A further data set deals with SARS-CoV. The experiment in a line: Reduction of SARS spike protein-mediated cell fusion using BlaM pseudovirus assay system in BSC1 cells. The class given is functional, Chlorocebus aethiops, BSC-1.
Data set [5] relates to SARS-CoV-2. The experiment in a line: Reduction of viral mRNA (RdRp and N) in SARS-CoV-2 infected Vero E6 cells (at MOI 0.1) after 24 hrs. The class given is functional, organism-based. Conditions: Chlorocebus sabaeus; Vero C1008.
Data set [6] relates to SARS-CoV-2. Nature of the data set: Reduction of SARS-CoV-2 infection by time of addition assay, with 50uM hydroxychloroquine administered at -2hrs, 0 hrs and 2hrs post-infection. The class given is functional, organism-based. The conditions noted are these: Chlorocebus sabaeus, Vero C1008.
Setting [7] is: Severe acute respiratory syndrome coronavirus 2, Vero C1008, 72 h.

One may read the IC50 as the point on the concentration scale where inhibition reaches its midpoint. A low value points to inhibition by little substance. Regarding `O=C1NCN(c2ccccc2)C12CCN(CCCC(c1ccc(F)cc1)c1ccc(F)cc1)CC2`, the IC50 in the data set on SARS-CoV-2 [1] (setting [7]) is 3.16 µM; with SARS-CoV-2 [3] (setting [7]) it was 5.32 µM. Also, the CC50 with Vero C1008 was found to be 30.3 µM. Also, the values for the selectivity ratio in the data set “in vitro [2]” and in “in vitro [4]” were 5.71 and 9.61, respectively.

`CCN(CC)Cc1cc(Nc2ccnc3cc(Cl)ccc23)ccc1O` [AMODIAQUINE HYDROCHLORIDE]: the IC50 in the data set on SARS-CoV-2 [1] (setting [7]) worked out at 2.59 µM; in the data set on SARS-CoV-2 [1] (vero c1008), 2.36 µM; in the data set on SARS-CoV-2 [3] (setting [7]), 4.94 µM; in the data set on SARS-CoV-2 [3] (vero c1008), 5.64 µM. The CC50 with Vero C1008 (72 h) is 34.4 µM and > 38.6 µM. In addition, the selectivity ratio in “in vitro [2]” came out at 6.97; in “in vitro [4]”, 13.3.

As a reminder, the Inhibition is the percentage by which the read-out fell short of the control. For the compound `CCN(CC)CCCC(C)Nc1ccnc2cc(Cl)ccc12.O=P(O)(O)O.O=P(O)(O)O` (stereo not drawn) [CHLOROQUINE PHOSPHATE], the IC50 stood at 42 µM in the data set with SARS-CoV-2 [1] (setting [7]) and 46.8 µM in the data set on SARS-CoV-2 [3] (setting [7]). Moreover, in the data set with SARS-CoV, the Inhibition is greater than 90%. Further, the result with SARS-CoV-2 [5] was Active.

As for `CN(C)CCCN1c2ccccc2Sc2ccc(Cl)cc21.Cl` [CHLORPROMAZINE HYDROCHLORIDE], the IC50 in the data set with SARS-CoV-2 [1] (setting [7]) was determined as 3.14 µM; in the data set on SARS-CoV-2 [3] (setting [7]), 4.03 µM. Further, in the data set with Vero C1008, the CC50 stood at 11.9 µM. For the same compound, the Inhibition in the data set with SARS-CoV is given as greater than 90%.

Turning to `CC[C@H]1CN2CCc3cc(OC)c(OC)cc3[C@@H]2C[C@@H]1C[C@H]1NCCc2cc(OC)c(OC)cc21` [EMETINE DIHYDROCHLORIDE HYDRATE], in the data set on Vero C1008, the CC50 was less than 0.39 µM.

Compound `Nc1ccn([C@@H]2O[C@H](CO)[C@@H](O)C2(F)F)c(=O)n1` [GEMCITABINE HYDROCHLORIDE] had a CC50 in the data set with Vero C1008 of 23.2 µM.

For the compound `CCN(CCO)CCCC(C)Nc1ccnc2cc(Cl)ccc12` (stereo not drawn) [HYDROXYCHLOROQUINE SULFATE], the IC50 in the data set on SARS-CoV-2 [1] (setting [7]) stood at 9.21 µM; with SARS-CoV-2 [3] (setting [7]), 11.2 µM. The compound further came in with a CC50 with Vero C1008 greater than 50 µM. Besides, the selectivity ratio in “in vitro [2]” was greater than 4.48; in “in vitro [4]” it was greater than 5.43. Besides, the outcome in the data set on SARS-CoV-2 [6] (time 0.0 hr), in the data set on SARS-CoV-2 [6] (time 2.0 hr), with SARS-CoV-2 [6] (time -2.0 hr) and in the data set on SARS-CoV-2 [5] was Active.

As for `Cc1ccc(NC(=O)c2ccc(CN3CCN(C)CC3)cc2)cc1Nc1nccc(-c2cccnc2)n1` [IMATINIB MESYLATE], the CC50 in the data set with Vero C1008 was greater than 30.9 µM.

As to `OC(c1cc(C(F)(F)F)nc2c(C(F)(F)F)cccc12)C1CCCCN1` (stereo not drawn) [MEFLOQUINE HYDROCHLORIDE], the IC50 with SARS-CoV-2 [1] (setting [7]) came to 7.11 µM; with SARS-CoV-2 [3] (setting [7]), 8.06 µM. Moreover, the CC50 in the data set with Vero C1008 worked out at 18.5 µM. The selectivity ratio in “in vitro [2]” turned out to be 2.3; in “in vitro [4]”, 2.61.

Consider `CC(CN1c2ccccc2Sc2ccccc21)N(C)C` (stereo not drawn) [PROMETHAZINE HYDROCHLORIDE], for which the results for the IC50 in the data set on SARS-CoV-2 [1] (setting [7]) and in the data set on SARS-CoV-2 [3] (setting [7]) were 9.21 µM and 10.4 µM, respectively. Also, the CC50 in the data set on Vero C1008 is greater than 42.6 µM. The selectivity ratio in “in vitro [2]” is greater than 4.08; in “in vitro [4]”, greater than 4.62.

Take `CC/C(=C(\c1ccccc1)c1ccc(OCCN(C)C)cc1)c1ccccc1` [TAMOXIFEN CITRATE]: the CC50 in the data set with Vero C1008 amounted to 38 µM.

As for `CC(C)N1CCN(c2ccc(OCC3COC(Cn4cncn4)(c4ccc(Cl)cc4Cl)O3)cc2)CC1` (stereo not drawn) [TERCONAZOLE], the IC50 worked out at 11.9 µM in the data set on SARS-CoV-2 [1] (setting [7]) and 16.1 µM with SARS-CoV-2 [3] (setting [7]). In addition, the CC50 with Vero C1008 is 41.5 µM. Moreover, the selectivity ratio is 2.57 in the data set “in vitro [2]” and 3.48 in the data set “in vitro [4]”.

Turning to `CCSc1ccc2c(c1)N(CCCN1CCN(C)CC1)c1ccccc1S2` [THIETHYLPERAZINE MALEATE], the results for the half-maximal inhibitory concentration (IC50) in the data set on SARS-CoV-2 [1] (setting [7]) and in the data set with SARS-CoV-2 [3] (setting [7]) were 7.09 µM and 8.02 µM, respectively. Besides, the CC50 in the data set on Vero C1008 was 18.4 µM. Further, the selectivity ratio in the data set “in vitro [2]” stood at 2.29; in “in vitro [4]”, 2.59.

With `CN(C)CCOc1ccc(/C(=C(/CCCl)c2ccccc2)c2ccccc2)cc1` [TOREMIFENE CITRATE], the IC50 with SARS-CoV-2 [1] (setting [7]) came to 4.77 µM; in the data set on SARS-CoV-2 [3] (setting [7]), 11.3 µM. In addition, in the data set on Vero C1008, the CC50 is 20.5 µM. The selectivity ratio in “in vitro [2]” worked out at 1.81; in the data set “in vitro [4]”, 4.3.

On to `CCN(CC)CCOc1ccc(C(O)(Cc2ccc(Cl)cc2)c2ccc(C)cc2)cc1` (stereo not drawn) [TRIPARANOL], for which the IC50 was 4.68 µM in the data set on SARS-CoV-2 [1] (setting [7]) and 6.41 µM in the data set on SARS-CoV-2 [3] (setting [7]). The CC50 in the data set on Vero C1008 was 21.2 µM. For the same compound, the selectivity ratio in the data set “in vitro [2]” worked out at 3.31; in the data set “in vitro [4]” it was 4.53.
